Patent US20020094524A1, “Compositions and methods for inhibiting HIV infection” (priority 2000, published 2002)

How the values were obtained:
[1] = tested on: ADA Env-pseudotyped HIV; assay: Pseudotype reporter virus entry assay, ADA Env; format: cell-based
Description: Pseudotype reporter virus entry assay: Recombinant luciferase-encoding HIV virions pseudotyped with Env from the M-tropic ADA (CCR5-dependent) and amphitropic murine leukemia virus (MLV) (CCR5-independent) were used to study HIV infection of MDM incubated with or without CP-96,345 or R-113281. The Env-deleted luciferase reporter plasmid PNL-Luc-E-R+ (kindly provided by N. Landau) was cotransfected into 293T cells along with plasmids encoding the ADA or MLV Env genes as previously described (31). Supernatants were collected 48 h later, assayed for p24^Gag antigen content, and frozen at −80° C. MDM (2.5×10^5 cells/well, in 48-well plates) were incubated overnight with or without CP-96,345 or R-113281 and then infected using 20 ng of p24^Gag antigen equivalent of each pseudotype HIV per well, in the presence of polybrene (7.5 μg/ml). At 72 h postinfection, the cells were lysed in 150 μl of 0.5% Triton-X-100 in PBS. Lysate (50 μl) was mixed with an equal volume of luciferase substrate (Promega, […].) and luciferase activity was determined in a microtiter plate luminometer (Dynex Technologies, Chantilly, Va.). The results were expressed as relative light units (RLU) in CP-96,345-treated or R-113281-treated and infected MDM as a percentage of that in untreated and infected MDM.

[2] = tested on: CCR5 mRNA; assay: CCR5 mRNA expression in MDM (RT-PCR); format: cell-based, human; details: for relative CCR5 mRNA level (real-time RT-PCR): CP-96,345 10^−7 to 10^−6 M or R-113281 10^−8 to 10^−6 M, 4 hours (FIG. 15A)
Description: Total RNA was isolated from human peripheral blood MDM (10^6 cells) using Tri-Reagent (Molecular Research Center, Cincinnati, Ohio) as we previously reported (16).
Reverse transcription: Total RNA (1 μg) was reverse transcribed using Reverse Transcription System (Promega, Madison, Wis.) with the specific primers (antisense) for HIV gag (5′-[…]-[…]-3′; SEQ ID NO: 1) (27) or CCR5 (5′-[…]-3′; SEQ ID NO: 2) (32) for 1 h at 42° C. RT reactions was terminated by incubating the reaction mixture at 99° C. for 5 min and then kept at 4° C. The resulting cDNA was used as a template for PCR amplification or real time PCR quantification.
Polymerase chain reaction (PCR) analysis: PCR amplification of CCR5 and HIV gag cDNA was performed with one tenth of the cDNA for 35 cycles (CCR5) (32) or 40 cycles (gag) (27) using AmpliTaq Gold (Perkin Elmer-Cetus, Foster City, Calif.) in a GeneAmp PCR System 2400 (Perkin Elmer-Cetus). β-Actin was used as a control to monitor the amount and integrity of RNA in each sample (Clontech, Palo Alto, Calif.). Real time PCR was performed with one tenth of cDNA using ABI Prism 7700 Sequence Detection System (Perkin Elmer). The reaction mixture contained 0.25 mM of dNTPs, AmpliTaq Gold (1.5 U), 5 mM of MgCl2, 50 pmole of each of the two primers (SK38: 5′-[…]-3′ (SEQ ID NO: 3); SK39: 5+-[…]-3′; SEQ ID NO: 4), 20 pmole of the molecular beacon probe (SK19: 5′-[…]-3′; SEQ ID NO: 5) labeled with FAM (a fluorophore) at its 5′ end and DABCYL (a quencher) at the 3′ end. The cycle conditions were 95° C. 10 min followed by 40 cycles of 95° C. 15 sec and 60° C. 1 min. The known amounts of HIV DNA isolated from ACH-2 cells were used as standard controls. All standards and samples were run in duplicates. HIV gag, CCR5, β-Actin primer pairs and the probe (SK19) were synthesized by Integrated DNA Technologies, Inc. (Coralville, Iowa).

[3] = tested on: X4 strain (UG024); assay: HIV RT activity in MDM infected with X4 strain; format: cell-based
Description: Based upon their differential use of the major HIV co-receptors, HIV isolates have been referred to as R5, X4 or R5X4 strains, respectively (29). The M-tropic (macrophage-tropic) R5 prototype strains (Bal and ADA), dual tropic strain (89.6) and X4 primary isolate (UG024), were obtained from the NIH AIDS Reagent Program. Primary M-tropic isolates (BL-6 and CSF-6) were isolated from the blood and cerebrospinal fluid cells, respectively, of a subject with AIDS.
The cells were also incubated with SP and/or anti-SP antibody. In this case, SP was incubated with (1:1000 dilution in 10% FCS DMEM) or without anti-SP antibody at room temperature for 10 min and then the mixture was added to the cell cultures for 2 h. When the cells were treated with the combination of CP-96,345 and SP, or CP-96,345, SP and anti-SP antibody, CP-96,345 was incubated with the cell culture for 10 min and then SP was added to the MDM or CP-96,345, SP and anti-SP (1:1000 in 10% FCS DMEM) were incubated for 10 min at room temperature and the mixture was incubated with the MDM for 2 h before infection with HIV. Untreated MDM served as controls. The cells were treated prior to, during, and throughout the infection. […]

COc1ccccc1CN[C@H]1C2CCN(CC2)[C@H]1C(c1ccccc1)c1ccccc1 [CP-96,345, 2S, 3S)-cis-2-(diphenylmethyl)-N-[(2-methoxyphenyl)-methyl]-1-azabicyclo[[2.2.2]octan-3-amine]
M-tropic ADA Env-pseudotyped HIV infection of MDM (luciferase activity) ([1]; CP-96,345 10^−8 and 10^−7M overnight (FIG. 10)): inhibited | CCR5 mRNA in MDM (RT-PCR) ([2]; 10^−8 to 10^−6M, 3 h (FIG. 9)): down-regulated | relative CCR5 mRNA level (real-time RT-PCR) [2]: significantly down-regulated | replication of X4 strain UG024 (RT activity) ([3]; CP-96,345 10^−7M, 8 days after infection (FIG. 6)): not affected

COc1cc(C(=O)N2CCO[C@](CCN3CCC4(CC3)c3ccccc3C[S@+]4[O-])(c3ccc(Cl)c(Cl)c3)C2)cc(OC)c1OC.Cl [R-113281]
M-tropic ADA Env-pseudotyped HIV infection of MDM (luciferase activity) ([1]; R-113281 10^−7 and 10^−6 overnight (FIG. 13)): inhibited | relative CCR5 mRNA level (real-time RT-PCR) [2]: significantly down-regulated | replication of X4 strain (RT activity) ([3]; R-113281 10^−6 M, 8 days after infection (FIG. 14)): not affected
